The source of these data is patent US20160090556A1, “PRODUCTS COMPRISING MALODOR REDUCTION MATERIALS” (The Procter & Gamble Company, priority 2014, published 2016).

Several values for one entry are separate records, joined by “and”; a condition that tells them apart may be missing. Equal entries are not always repeated. Where two headings read alike, the source gives them in different places.

A short description of data set [1]: Blocker Index (BI) assigned by perfumers/expert graders on isovaleric acid swatches. On the set-up: species or system human; key: BI odor strength 0 (lowest, clean swatch) to 3 (highest). The text has this: (§1) Blocker materials suitable for use in consumer products of the present invention are chosen for their ability to decrease malodor, while not interfering with perception of a fragrance. Material selection is done by assigning two indices to a test sample material from two reference scales in order to rank odor strengths. The two reference scales are the Fragrance Fidelity Index (FFI) scale and the Blocker Index (BI) scale. The FFI ranks the ability of the test sample material to impart a perceivable odor which could cause interference when combined with another fragrance and the BI ranks the ability of the test sample material to reduce malodor perception. The two methods for assigning the indices to a test sample on the FFI and the BI reference scales are given below.
The first step in the method for assigning a BI to a test sample material on the BI reference scale is to create the BI reference swatches. […] Fabric swatches for this test are white knit polycotton (4 inch×4 inch) swatches from EMC ordered as PC 50/50. The supplier is instructed to strip the swatches first, stripping involves washing twice with a fragrance-free detergent and rinsing three times.
The BI scale contains one clean swatch with no malodor applied. […] These solutions are pipetted to the middle of the swatches. […] After drying for 30 minutes in a vented hood, the swatches are wrapped in aluminum foil to prevent odor contamination to the treated swatch. A clean untreated swatch is also included as the lowest anchor point of reference for malodor strength on the BI scale. The BI reference scale swatches should be used within 0.5 to 12 hours and discarded after 12 hours. The swatches are used as scale anchor points when graders evaluate a test sample(s) and are assigned a Blocker Index (BI) as show in Table 12.
The perfumer/expert grader is asked to rank order swatches according to a scale between 0 and 3.
The reference swatches represent the 0, 1, 2, and 3 BIs on the BI reference scale, Table 12. The expert grader should familiarizes him/herself with the strength of the odor on the BI reference swatches by sniffing each one starting at 0 (the lowest odor strength) and ending at 3 (the highest odor strength). This should be done prior to evaluating the swatch treated with the test material.
To evaluate the BI, the test material is applied to a malodorous swatch to determine how well the test material blocks the malodor. […] After drying the malodorous swatch a known concentration of test material solution, between 1 ppm and 100 ppm is pipetted onto the malodorous swatch. […] It is sometimes necessary to evaluate several levels of the test material between about 1 and about 100 ppm to determine the BI.
At least two perfumers/expert graders are used to assign the BI to the test sample. […] The test sample swatch is assigned a BI at or between numbers on the BI in table.

Data set [2] in a line: Fragrance Fidelity Index (FFI) assigned by perfumers/expert graders on fabric swatches. On the set-up: species or system human; key: FFI grade on reference scale anchored by 0, 1, 2, 3 swatches.
Text: as §1
The first step in the method for assigning an FFI to the test samples on the FFI reference scale is to create the FFI reference swatches. […] Fabric swatches for this test are white knit polycotton (4 inch×4 inch) swatches from EMC ordered as PC 50/50. The supplier is instructed to strip the swatches first, stripping involves washing twice with a fragrance-free detergent and rinsing three times.
Pipette 13 μL of each of the three solutions into the middle of a clean swatch resulting in about a 1 cm diameter of the solution in the middle of the swatch. This will create a sensory scale of three swatches with three different odor levels based on the concentration of the solution pipetted onto the swatch. After drying for 30 minutes in a vented hood, the swatches are wrapped in aluminum foil to prevent odor contamination to the treated swatch. A clean untreated swatch is also included as the lowest anchor point of reference for odor strength on the FFI scale. The FFI reference scale swatches should be used within 0.5 to 12 hours and discarded after 12 hours. The swatches are used as scale anchor points when graders evaluate a test sample(s) and are assigned a Fragrance Fidelity Index (FFI) as show in Table 7.
The perfumer/expert panel is asked to rank order swatches according to a scale between 0 and 3.
The reference swatches represent the 0, 1, 2, and 3 FFIs on the FFI reference scale, Table 9. The expert grader should familiarize them self with the strength of the odor on the FFI reference swatches by sniffing each one starting at 0 (the lowest odor strength) and ending at 3 (the highest odor strength). This should be done prior to evaluating the test sample material treated swatch.
A clean swatch is treated with 13 μL of a known concentration of a test sample material resulting in an about 1 cm of the solution on the clean swatch. Just like the reference swatches, the test sample material swatch is dried in a vented hood for 30 minutes and then wrapped in aluminum foil to prevent contamination. The test material swatches and the FFI reference swatches should be made within 2 hours of each other. The test material swatch must be used within 0.5 to 12 hours and discarded after 12 hours.
At least two perfumers/expert graders are used to assign an FFI grade to a test sample. The perfumer/expert grader smells the test sample swatch by holding that swatch 1 inch from their nose with their nose centered over the area where the test sample was pipetted on to the fabric and then assigns the test sample an FFI grade using the FFI reference scale anchor swatches as references. In cases where the test sample material is graded greater than 3, the test material is not a blocker material or the concentration of the material needs to be lowered and reevaluated to determine if a lower level has a malodor blocker functionality.

Data set [3] in a line: Liquid dish neat product liquid-air partition coefficient. It is filed as physicochemical.
The nature of data set [4]: Probability of Ingredient Color Instability. It is filed as physicochemical.
[5] abbreviates: Conc 50 ppm test material on isovaleric acid swatch.
Where [6] appears, read: Conc 50 ppm test material on swatch.
[7] abbreviates: Conc 10 ppm test material on isovaleric acid swatch.
Setting [8] is: Conc 10 ppm test material on swatch.
Where [9] appears, read: class code letter within Comment Code.

`CCCCCCCCCCCCO` [Material 174]: in data set [1] (setting [5]), the BI is 2.3. In data set [2] (setting [6]), the FFI is 0.5.

On to `C=C1CCC2OC2(C)CCC2C1CC2(C)C` (centres unmarked) [Material 1148], for which the “Comment Code: Log of liquid dish neat product liquid-air partition coefficient” value (shortened to “Comment Code: Log”) in data set [3] (code letters K, L) is given as “K (Log of liquid dish neat product liquid-air partition coefficient greater than or equal to −7)”; in data set [3] (codes K/L of the Comment Code, Table 1) it was “K (Log of liquid dish neat product liquid-air partition coefficient greater than or equal to −7)”. In addition, in data set [1] (setting [5]), the BI is recorded as 2.3. Also, the FFI in data set [2] (setting [6]) was found to be 0.5.

With `COC(=O)OC1CC/C=C\CCC1` (centres unmarked) [Material 1139], the BI in data set [1] (setting [7]) came out at 2.0; in data set [1] (setting [5]), 2.7. Also, the FFI amounted to 0 in data set [2] (setting [8]) and 1.0 in data set [2] (setting [6]).

In the case of `CC(C)CC(=O)O` [isovaleric acid, reference compound], the “BI grade of reference swatch, Ave” value in data set [1] (2 μL 0.08%, all graders (Table 10)) is 1.0. Also, the “BI grade of reference swatch, individual Expert Grader” value in data set [1] (stripped swatch with 2 μL 0.08%) was 0.5 and 1.0; in data set [1] (stripped swatch with 5 μL 0.08%), 2.5; in data set [1] (stripped swatch with 20 μL 0.08%) it was 2.5.

In data set [1] (setting [5]), `C=CC(C)=CCC=C(C)C` [Material 524] showed a BI of 2.8. In data set [2] (setting [6]), this molecule yielded an FFI of 0.

With `CC(C)(C)C1CCCCC1` [4-tert-butyl cyclohexane], the BI in data set [1] (setting [7]) and in data set [1] (setting [5]) was 2.0 throughout. In addition, the FFI in data set [2] (setting [8]) is on record as 0; in data set [2] (setting [6]) it was 0.3.

In the case of `CCC(O)COC1CCCCC1C(C)(C)C` (centres unmarked) [Material 677], in data set [3], the “Log of liquid dish neat product liquid-air partition coefficient (Comment Code K/L)” value (“Log … (Comment Code K/L)” for short) was “K (Log of liquid dish neat product liquid-air partition coefficient greater than or equal to −7)”. The BI in data set [1] (setting [7]) amounted to 2.3; in data set [1] (setting [5]) it was 2.0. For the same molecule, the FFI stood at 0 in data set [2] (setting [8]) and 1.8 in data set [2] (setting [6]).

For the molecule `CCOC(=O)OC1C(C)CCC(C)C1C` (centres unmarked) [Material 1005], the BI in data set [1] (setting [5]) worked out at 2.6. In data set [2] (setting [6]), this molecule showed an FFI of 0.5.

Turning to `CCCCCCCCCCCO` [Undecanol], the BI in data set [1] (setting [5]) stood at 2.3. This molecule returned an FFI in data set [2] (setting [6]) of 0.8.

Consider `O=C1CCC2CCCCC2O1` (centres unmarked) [3,4,4a,5,6,7,8,8a-octahydrochromen-2-one], for which the BI in data set [1] (setting [7]) and in data set [1] (setting [5]) was 2.0 throughout. Also, the FFI in data set [2] (setting [8]) and in data set [2] (setting [6]) was 0 in each case.

Turning to `CCCCCCCCCCCCCCCC(=O)OC` [Material 109], in data set [3] (setting [9]), the “Log … (Comment Code K/L)” value is given as “K (Log of liquid dish neat product liquid-air partition coefficient greater than or equal to −7)”. This molecule came in with a BI in data set [1] (setting [7]) of 2.0.

On to `CC(=O)OCCCCCCC(C)C` [Material 204], for which the figures for the BI in data set [1] (setting [7]) and in data set [1] (setting [5]) were 2.0 and 2.7, respectively. Moreover, the FFI in data set [2] (setting [8]) and in data set [2] (setting [6]) was 0 throughout.

Turning to `CC(=O)OC1CC2CC1C1CC=CC21` (centres unmarked) [Material 281], the “Log … (Comment Code K/L)” value in data set [3] (setting [9]) was “K (Log of liquid dish neat product liquid-air partition coefficient greater than or equal to −7)”. Besides, the “Comment Code: Log” value in data set [3] (code letters K, L) is recorded as “K (Log of liquid dish neat product liquid-air partition coefficient greater than or equal to −7)”. The BI in data set [1] (setting [7]) and in data set [1] (setting [5]) was 2.0 throughout. The FFI in data set [2] (setting [8]) worked out at 0; in data set [2] (setting [6]), 0.5.

On to `CC1=C2CCC3(C)OC3C2C(C)(C)CCC1` (centres unmarked) [Material 624], for which, in data set [3], the “Log … (Comment Code K/L)” value is given as “K (Log of liquid dish neat product liquid-air partition coefficient greater than or equal to −7)”. Further, the “Comment Code: Log” value in data set [3] (code letters K, L) is on record as “K (Log of liquid dish neat product liquid-air partition coefficient greater than or equal to −7)”. For the same molecule, in data set [4], the “Probability of Ingredient Color Instability (Comment Code E/F)” value (shortened to “Probability”) was “F (Probability of Ingredient Color Instability<71%)”.

Take `COC(C)(C)CCCC(C)CC=O` (centres unmarked) [Material 126]: the “Log … (Comment Code K/L)” value in data set [3] (setting [9]) is given as “K (Log of liquid dish neat product liquid-air partition coefficient greater than or equal to −7)”. In data set [4] (setting [9]), the “Probability” value is “F (Probability of Ingredient Color Instability<71%)”.

For the molecule `CC(C=O)Cc1ccc(C(C)C)cc1` (centres unmarked) [Material 478], the “Log … (Comment Code K/L)” value in data set [3] (setting [9]) is reported as “K (Log of liquid dish neat product liquid-air partition coefficient greater than or equal to −7)”. Besides, the “Probability” value in data set [4] (setting [9]) was “F (Probability of Ingredient Color Instability<71%)”.

On to `CC(CCO)CCc1ccccc1` (centres unmarked) [Material 962], for which the results for the BI in data set [1] (setting [7]) and in data set [1] (setting [5]) were 2.3 and 1.7, respectively. Also, the FFI in data set [2] (setting [8]) was 0; in data set [2] (setting [6]) it was 0.5.

Consider `CC(C)=CCCC(C)CCCC(C)C=O` (centres unmarked) [Material 757], for which the “Log … (Comment Code K/L)” value in data set [3] is on record as “K (Log of liquid dish neat product liquid-air partition coefficient greater than or equal to −7)”. The “Probability” value in data set [4] was “F (Probability of Ingredient Color Instability<71%)”.

Consider `CCC1=C(O)C(=O)C(C)O1` (centres unmarked) [Material 259], for which the “Log … (Comment Code K/L)” value in data set [3] (setting [9]) is listed as “K (Log of liquid dish neat product liquid-air partition coefficient greater than or equal to −7)”. Moreover, in data set [4] (setting [9]), the “Probability” value is “F (Probability of Ingredient Color Instability<71%)”.

For the molecule `CCCCCCC(CO)C(C)=O` (centres unmarked) [Material 106], the “Log … (Comment Code K/L)” value in data set [3] (setting [9]) is “K (Log of liquid dish neat product liquid-air partition coefficient greater than or equal to −7)”. In addition, the “Probability” value in data set [4] (setting [9]) is recorded as “F (Probability of Ingredient Color Instability<71%)”.

With `CCCCCCCCCC=CC=O` [Material 806], the “Log … (Comment Code K/L)” value in data set [3] was “K (Log of liquid dish neat product liquid-air partition coefficient greater than or equal to −7)”. Also, the “Probability” value in data set [4] was “F (Probability of Ingredient Color Instability<71%)”.

Consider `CC1=CC2CC(C=O)C1CC2C(C)C` (centres unmarked) [Material 142], for which the “Log … (Comment Code K/L)” value in data set [3] (setting [9]) is on record as “K (Log of liquid dish neat product liquid-air partition coefficient greater than or equal to −7)”. The “Probability” value in data set [4] (setting [9]) is “F (Probability of Ingredient Color Instability<71%)”.

As for `O=CCCC=C1CC2CC1C1CCCC21` (centres unmarked) [Material 418], the “Log … (Comment Code K/L)” value in data set [3] (setting [9]) is given as “K (Log of liquid dish neat product liquid-air partition coefficient greater than or equal to −7)”. Besides, the “Probability” value in data set [4] (setting [9]) is “F (Probability of Ingredient Color Instability<71%)”.
